Converted amounts (≈) assume the structure as drawn.
Experiments:
Assay type in all cases: functional
Escherichia coli [1] = test: Antibacterial activity against Escherichia coli MG1655 after 24 hrs by CLSI broth microdilution method; conditions: MG1655, 24 h
Staphylococcus aureus [2] = test: Antibacterial activity against wild-type Staphylococcus aureus NCTC 8325 after 24 hrs by CLSI broth microdilution method; conditions: NCTC 8325, 24 h
Pseudomonas aeruginosa [3] = test: Antibacterial activity against wild-type Pseudomonas aeruginosa PAO1 after 24 hrs by CLSI broth microdilution method; conditions: PAO1, 24 h
[4] = tested on: Staphylococcus epidermidis; test: Antibacterial activity against wild-type Staphylococcus epidermidis RP62A after 24 hrs by CLSI broth microdilution method
[5] = tested on: Staphylococcus epidermidis; test: Antibacterial activity against Staphylococcus epidermidis RP62A harboring spsB S29P mutant after 24 hrs by CLSI broth microdilution method
Staphylococcus aureus [6] = test: Antibacterial activity against Staphylococcus aureus NCTC 8325 harboring lepB P29S mutant after 24 hrs by CLSI broth microdilution method; conditions: NCTC 8325, 24 h
Escherichia coli [7] = test: Antibacterial activity against Escherichia coli MG1655 harboring lepB P84L mutant after 24 hrs by CLSI broth microdilution method; conditions: MG1655, 24 h
Pseudomonas aeruginosa [8] = test: Antibacterial activity against Pseudomonas aeruginosa PAO1 harboring lepB P84L mutant after 24 hrs by CLSI broth microdilution method; conditions: PAO1, 24 h
Staphylococcus aureus [9] = test: Antibacterial activity against methicillin-resistant Staphylococcus aureus isolate USA300

Row | Structure (SMILES) | MIC (Escherichia coli [1]) [µg/mL] | MIC (Staphylococcus aureus [2]) [µg/mL] | MIC (Pseudomonas aeruginosa [3]) [µg/mL] | MIC [4] [µg/mL] | MIC [5] [µg/mL] | MIC (Staphylococcus aureus [6]) [µg/mL] | MIC (Escherichia coli [7]) [µg/mL] | MIC (Pseudomonas aeruginosa [8]) [µg/mL] | MIC (Staphylococcus aureus [9]) [µg/mL]
1 | CCCCCCCC(=O)N(C)[C@H](CO)C(=O)N[C@H](C)C(=O)NCC(=O)N(C)[C@@H]1C(=O)N[C@@H](C)C(=O)N[C@H](C(=O)O)Cc2ccc(O)c(c2)-c2cc1ccc2O | > 64 | > 64 | > 64 | – | – | – | – | – | –
2 | CCCCCCCCc1ccc(-c2ccc(C(=O)N(C)[C@H](CO)C(=O)N[C@H](C)C(=O)NCC(=O)N(C)[C@@H]3C(=O)N[C@@H](C)C(=O)N[C@H](C(=O)O)Cc4ccc(O)c(c4)-c4cc3ccc4O)cc2)cc1 | > 64 | 16 (≈ 17.1 µM) | > 64 | 1 (≈ 1.07 µM) | 16 (≈ 17.1 µM) | 8 (≈ 8.56 µM) | 1 (≈ 1.07 µM) | – | –
3 | CCCCCCCCCCCC(=O)N(C)[C@H](CO)C(=O)N[C@H](C)C(=O)NCC(=O)N(C)[C@@H]1C(=O)N[C@@H](C)C(=O)N[C@H](C(=O)O)Cc2ccc(O)c(c2)-c2cc1ccc2O | > 64 | > 64 | > 64 | – | > 64 | – | – | – | –
4 | CCCCCCCCCC(=O)N(C)[C@H](CO)C(=O)N[C@H](C)C(=O)NCC(=O)N(C)[C@@H]1C(=O)N[C@@H](C)C(=O)N[C@H](C(=O)O)Cc2ccc(O)c(c2)-c2cc1ccc2O | > 64 | > 64 | > 64 | – | – | – | – | – | –
5 | CCCCCCCCCCCCCCCCCC(=O)N(C)[C@H](CO)C(=O)N[C@H](C)C(=O)NCC(=O)N(C)[C@@H]1C(=O)N[C@@H](C)C(=O)N[C@H](C(=O)O)Cc2ccc(O)c(c2)-c2cc1ccc2O | > 64 | > 64 | > 64 | – | – | – | – | – | –
6 | C[C@@H]1NC(=O)[C@@H](N(C)C(=O)CNC(=O)[C@@H](C)NC(=O)[C@@H](CO)N(C)C(=O)Cc2ccc3ccccc3c2)c2ccc(O)c(c2)-c2cc(ccc2O)C[C@@H](C(=O)O)NC1=O | > 64 | > 64 | > 64 | > 64 | – | – | – | – | –
7 | C[C@@H]1NC(=O)[C@@H](N(C)C(=O)CNC(=O)[C@@H](C)NC(=O)[C@@H](CO)N(C)C(=O)Cc2ccc(-c3ccccc3)cc2)c2ccc(O)c(c2)-c2cc(ccc2O)C[C@@H](C(=O)O)NC1=O | > 64 | > 64 | > 64 | 32 (≈ 38.2 µM) | > 64 | – | – | – | –
8 | C[C@@H]1NC(=O)[C@@H](N(C)C(=O)CNC(=O)[C@@H](C)NC(=O)[C@@H](CO)N(C)C(=O)c2ccc(-c3ccccc3)cc2)c2ccc(O)c(c2)-c2cc(ccc2O)C[C@@H](C(=O)O)NC1=O | > 64 | > 64 | > 64 | 64 (≈ 77.8 µM) | > 64 | – | – | – | –
9 | CCc1ccc(-c2ccc(C(=O)N(C)[C@H](CO)C(=O)N[C@H](C)C(=O)NCC(=O)N(C)[C@@H]3C(=O)N[C@@H](C)C(=O)N[C@H](C(=O)O)Cc4ccc(O)c(c4)-c4cc3ccc4O)cc2)cc1 | > 64 | > 64 | > 64 | 8 (≈ 9.4 µM) | > 64 | 64 (≈ 75.2 µM) | 16 (≈ 18.8 µM) | – | –
10 | CCCCc1ccc(-c2ccc(C(=O)N(C)[C@H](CO)C(=O)N[C@H](C)C(=O)NCC(=O)N(C)[C@@H]3C(=O)N[C@@H](C)C(=O)N[C@H](C(=O)O)Cc4ccc(O)c(c4)-c4cc3ccc4O)cc2)cc1 | > 64 | > 64 | > 64 | 1 (≈ 1.14 µM) | > 64 | 16 (≈ 18.2 µM) | 4 (≈ 4.55 µM) | – | –
11 | CCCCCCc1ccc(-c2ccc(C(=O)N(C)[C@H](CO)C(=O)N[C@H](C)C(=O)NCC(=O)N(C)[C@@H]3C(=O)N[C@@H](C)C(=O)N[C@H](C(=O)O)Cc4ccc(O)c(c4)-c4cc3ccc4O)cc2)cc1 | > 64 | 64 (≈ 70.6 µM) | > 64 | 0.5 (≈ 0.551 µM) | 32 (≈ 35.3 µM) | 8 (≈ 8.82 µM) | 1 (≈ 1.1 µM) | – | –
12 | CCCCCCc1ccc(C(=O)N(C)[C@H](CO)C(=O)N[C@H](C)C(=O)NCC(=O)N(C)[C@@H]2C(=O)N[C@@H](C)C(=O)N[C@H](C(=O)O)Cc3ccc(O)c(c3)-c3cc2ccc3O)cc1 | > 64 | > 64 | > 64 | 8 (≈ 9.63 µM) | > 64 | 64 (≈ 77 µM) | 32 (≈ 38.5 µM) | – | –
13 | CCCCCCCCc1ccc(C(=O)N(C)[C@H](CO)C(=O)N[C@H](C)C(=O)NCC(=O)N(C)[C@@H]2C(=O)N[C@@H](C)C(=O)N[C@H](C(=O)O)Cc3ccc(O)c(c3)-c3cc2ccc3O)cc1 | > 64 | > 64 | > 64 | 1 (≈ 1.16 µM) | > 64 | 8 (≈ 9.31 µM) | 8 (≈ 9.31 µM) | 64 (≈ 74.5 µM) | –
14 | CCCCCCCCCCc1ccc(C(=O)N(C)[C@H](CO)C(=O)N[C@H](C)C(=O)NCC(=O)N(C)[C@@H]2C(=O)N[C@@H](C)C(=O)N[C@H](C(=O)O)Cc3ccc(O)c(c3)-c3cc2ccc3O)cc1 | > 64 | 32 (≈ 36.1 µM) | > 64 | 0.5 (≈ 0.564 µM) | 16 (≈ 18 µM) | 4 (≈ 4.51 µM) | 2 (≈ 2.25 µM) | 16 (≈ 18 µM) | –
15 | CCCCCCCCCCCCCCCC(=O)N[C@@H](CO)C(=O)N[C@@H](C)C(=O)NCC(=O)N(C)[C@@H]1C(=O)N[C@@H](C)C(=O)N[C@H](C(=O)O)Cc2ccc(O)c(c2)-c2cc1ccc2O | > 64 | > 64 | > 64 | – | – | – | – | – | –
16 | CCCCCCCCCCCCCCCC(=O)N[C@@H](CO)C(=O)N(C)[C@@H](C)C(=O)N(C)CC(=O)N(C)[C@@H]1C(=O)N[C@@H](C)C(=O)N[C@H](C(=O)O)Cc2ccc(O)c(c2)-c2cc1ccc2O | > 64 | > 64 | > 64 | > 64 | – | – | – | – | –
17 | CCCCCCCCCCCCCCCC(=O)N1C[C@@H](O)C[C@H]1C(=O)N[C@@H](C)C(=O)NCC(=O)N(C)[C@@H]1C(=O)N[C@@H](C)C(=O)N[C@H](C(=O)O)Cc2ccc(O)c(c2)-c2cc1ccc2O | > 64 | > 64 | > 64 | 4 (≈ 4.48 µM) | 8 (≈ 8.96 µM) | 4 (≈ 4.48 µM) | – | – | –
18 | CCCCCCCCCCCCCCCC(=O)N(C)[C@@H](CO)CC(=O)N[C@@H](C)C(=O)NCC(=O)N(C)[C@@H]1C(=O)N[C@@H](C)C(=O)N[C@H](C(=O)O)Cc2ccc(O)c(c2)-c2cc1ccc2O | > 64 | 64 (≈ 71.5 µM) | > 64 | 4 (≈ 4.47 µM) | 8 (≈ 8.94 µM) | 16 (≈ 17.9 µM) | – | – | –
19 | CCCCCCCCCCCCCCCC(=O)N(C)[C@@H](CO)CCC(=O)N[C@@H](C)C(=O)NCC(=O)N(C)[C@@H]1C(=O)N[C@@H](C)C(=O)N[C@H](C(=O)O)Cc2ccc(O)c(c2)-c2cc1ccc2O | > 64 | 16 (≈ 17.6 µM) | > 64 | 8 (≈ 8.8 µM) | 16 (≈ 17.6 µM) | 4 (≈ 4.4 µM) | – | – | –
20 | CCCCCCCCCCCCCCC(C)C(=O)N[C@@H](C)C(=O)NCC(=O)N(C)[C@@H]1C(=O)N[C@@H](C)C(=O)N[C@H](C(=O)O)Cc2ccc(O)c(c2)-c2cc1ccc2O (mixture of isomers) | > 64 | > 64 | > 64 | 8 | > 64 | – | – | – | –
21 | CCCCCCCCCCCCCCCC(=O)N(C)[C@@H](CO)C(=O)NCC(C)C(=O)NCC(=O)N(C)[C@@H]1C(=O)N[C@@H](C)C(=O)N[C@H](C(=O)O)Cc2ccc(O)c(c2)-c2cc1ccc2O (mixture of isomers) | > 64 | > 64 | > 64 | 8 | 16 | – | 8 | 16 | –
22 | CCCCCCCCCCCCCCCC(=O)N(C)[C@@H](CO)C(=O)NCCC(C)C(=O)NCC(=O)N(C)[C@@H]1C(=O)N[C@@H](C)C(=O)N[C@H](C(=O)O)Cc2ccc(O)c(c2)-c2cc1ccc2O (mixture of isomers) | > 64 | > 64 | > 64 | 8 | 8 | 8 | – | – | –
23 | CC(C)CCCCCCCCC(=O)N(C)[C@H](CO)C(=O)N[C@H](C)C(=O)NCC(=O)N(C)[C@@H]1C(=O)N[C@@H](C)C(=O)N[C@H](C(=O)O)Cc2ccc(O)c(c2)-c2cc1ccc2O [ARYLOMYCIN A2] | – | – | – | – | – | – | – | – | 16 (≈ 19.4 µM)
24 | CCCCCCCCCCCCCCCC(=O)N(C)[C@H](CO)C(=O)N[C@H](C)C(=O)NCC(=O)N(C)[C@@H]1C(=O)N[C@@H](C)C(=O)N[C@H](C(=O)O)Cc2ccc(O)c(c2)-c2cc1ccc2O [ARYLOMYCIN C16] | > 64 | > 64 | > 64 | 0.5 (≈ 0.567 µM) | – | – | – | 8 (≈ 9.08 µM) | 16 (≈ 18.2 µM)
